The source of these data is patent publication US6635437B2, “Compounds, compositions and methods for generating chemiluminescence with phosphatase enzymes” (Lumigen, Inc., priority 1996, dated 2003).

In assay [1] the test system is alkaline phosphatase (AP). Nature of the assay: Chemiluminescent detection of alkaline phosphatase with acridan phosphate and surfactant enhancer. The conditions noted are these: 25° C.; for S/B (ratio of maximum light intensity to light intensity in the absence of enzyme): 0.33 mM 1, 0.01 mg/mL Enhancer A. The assay is classed as biochemical.
Assay [2] has as its system AP-labeled antibody. Nature of the assay: Western blot assay with compound 5 and lucigenin. The conditions noted are these: 0.66 mM 5, 64 μM lucigenin, 0.1 M tris pH 8.8; PVDF membrane. The text has this: A composition of the present invention were used to detect and quantify a protein, human transferrin in a Western blot with an AP-labeled antibody on a polyvinylidene difluoride (PVDF) membrane. Dilutions of transferrin containing from 5000, 1000, 180, 30 and 5 pg, respectively, of protein were electrophoresed and transferred to PVDF membranes (Millipore, Bedford, Mass.). The transferrin bands were blocked with and then reacted sequentially with goat anti-human transferrin and rabbit anti-goat-AP conjugate. The membranes were soaked briefly with reagents comprising 0.1 M tris buffer, pH 8.8 containing 0.88 mM MgCl2, 0.66 mM compound 5 and 64 μM lucigenin. The membranes were placed between transparent plastic sheets and exposed to X-ray film. The bands for human transferrin were detected after 10 min with a 2.5 min exposure. The light produced using this composition led to intense emission which could be imaged for several hours.
Similar results were obtained using nitrocellulose blotting membrane instead of PVDF membrane.

In assay [3] the test system is alkaline phosphatase (AP). Put plainly: Chemiluminescent detection of alkaline phosphatase with acridan phosphate and cationic aromatic compound (CAC). In kind it is biochemical. The conditions noted are these: for S at 36 min (plateau intensity): 21 mM CAC in DMSO diluted 1:1000 into compound 5 in 0.1 M tris pH 8.8, 4×10^−16 mol AP, room temperature.
Assay [4] has as its system AP-labeled antibody. Nature of the assay: Western blot assay of human transferrin using PVDF membrane. The text has this:
The chemiluminescent reaction of the present invention provides a particularly effective reagent for detection of AP conjugates on polyvinylidene difluoride (PVDF) membranes, nylon membranes and on nitrocellulose filters and membranes.
provides an intense luminescence which rises to a maximum level nearly instantly and maintains essentially constant intensity for at least 2 days. Detection on film and optimizing image intensity are thus particularly convenient.
Compositions of the present invention were used to detect and quantify a protein, human transferrin in a Western blot with an AP-labeled antibody on a polyvinylidene difluoride (PVDF) membrane. Dilutions of transferrin containing from 5000, 1000, 180, 30 and 5 pg, respectively, of protein were electrophoresed and transferred to PVDF membranes (Millipore, Bedford, Mass.). The transferrin bands were blocked with and then reacted sequentially with goat anti-human transferrin and rabbit anti-goat-AP conjugate. The membranes were soaked briefly with reagents comprising 0.2 M 221 buffer, pH 9.6 containing 0.88 mM MgCl2, 0.66 mM acridan phosphate 1 and 0.1 to 1 mg/mL of Enhancer A. The membranes were placed between transparent plastic sheets and exposed to X-ray film. […] The light produced using these compositions with varying amounts of the enhancer led to intense emission which could be imaged for at least 2 weeks. […]

Assay [5] concerns AP-labeled antibody. Put plainly: Western blot using nitrocellulose membrane. The conditions noted are these: 0.33 mM 1, pH 9.6, 0.5 mg/mL Enhancer A. As to the method:
A Western blot assay according to the procedures in Example 27 was performed using nitrocellulose membrane as the solid phase. Transferrin standards in the range of 5000-30 pg were used.

Assay [6] has as its system acid phosphatase (AcP). Put plainly: Chemiluminescent detection of acid phosphatase and inhibition by tartrate. In kind it is biochemical. The conditions noted are these: 0.33 mM 1, 0.1 M tris pH 7, 0.01-0.1% Enhancer A; ambient temperature. As to the method: The quenching of emission was not due to a reduction of the pH since addition of 10 μL of citrate buffer caused only a 25% reduction in light intensity.

Assay [7] deals with acid phosphatase (AcP). Put plainly: Chemiluminescent detection of AcP by pH change. The assay is classed as biochemical. The conditions noted are these: 0.33 mM 1, tris pH 7.0, 0.1% BSA, 0.01% Enhancer A, 3 μL AcP, 8 min; 1 N NaOH injected, integrated 4 min. The method, then: An alternate way to detect the light emitted by reaction of AcP with 1 is to incubate a reagent composition containing 1 and enhancer with AcP at a first pH and then rapidly raise the pH by injecting a solution of a strong base to cause a burst of light emission. A reagent composition (100 μL) comprising 0.33 mM acridan phosphate 1 in 0.1 M tris buffer, pH 7.0, 0.1% BSA and 0.01% Enhancer A was reacted with 3 μL of AcP (Sigma AcP LIN-TROL, reconstituted to 2.0 mL, 83 U/L) for 8 min at ambient temperature in a test tube. A solution of 1 N NaOH (50 μL) was injected and light intensity integrated for 4 min.

[8] abbreviates: 0.66 mM 5, 0.2 M 2-methyl-2-amino-1-propanol pH 9.6, 0.5 mg/mL Enhancer A, 10^−13 mol AP.

On to `CN1c2ccccc2C(=C(OP(=O)([O-])[O-])Sc2ccccc2)c2ccccc21.[Na+].[Na+]` [Compound 5, 9-(Phenylthiophosphoryloxymethylidene)-10-methylacridan, disodium salt], for which, in assay [1] (setting [8]), the “chemiluminescence on reaction with AP” value is listed as “easily measurable blue chemiluminescence” and the “time to maximum chemiluminescence intensity” value is recorded as 2 min. In addition, in assay [2], the “period for which emission could be imaged” value is on record as “several hours”. In addition, in assay [3] (0.66 mM 5, 6.4 μM lucigenin, 1 mg/mL SDS, 0.01 mg/mL Na2SO3, 0.033% TWEEN 20, tris pH 8.8, 8×10^−16 mol AP, 25° C.), the “time to maximum chemiluminescence intensity” value is listed as 2 min. Besides, the “S at 36 min (plateau intensity)” value in assay [3] is on record as 34.7.

Turning to `CN1c2ccccc2C(=C(Oc2ccccc2)OP(=O)([O-])[O-])c2ccccc21.[Na+].[Na+]` [Compound 1, 9-(Phenoxyphosphoryloxymethylidene)-10-methylacridan, disodium salt], the “time for which emission could be imaged” value in assay [4] (0.66 mM 1, 0.2 M 221 buffer pH 9.6, 0.1 to 1 mg/mL Enhancer A, PVDF) is “at least 2 weeks”. For the same compound, the “time for which luminescence maintains essentially constant intensity” value in assay [4] (antibody-AP conjugate on PVDF membrane) is listed as “at least 2 days”. Besides, the “time to maximum chemiluminescence intensity” value in assay [1] (0.33 mM 1, 0.1 M tris pH 8.5, 0.88 mM Mg, 0.01 mg/mL Enhancer A, 10^−13 mol AP) is on record as 2 min; in assay [1] (reagent composition of Example 14, 8×10^−16 mol AP) it was “ca. 2 min”. The “chemiluminescence on reaction with AP” value in assay [1] (composition of Example 14 (0.1 M tris pH 8.5, Enhancer A), AP) is “easily measurable blue chemiluminescence”. Also, the “S/B (ratio of maximum light intensity to light intensity in the absence of enzyme)” value is given as 37 in assay [1] (pH 7.0, tris, 8×10^−16 mol AP); 144 in assay [1] (pH 7.5, tris, 8×10^−16 mol AP); 273 in assay [1] (pH 8.0, tris, 8×10^−16 mol AP); 280 in assay [1] (pH 8.5, tris, 8×10^−16 mol AP); 200 in assay [1] (pH 9.0, 221 buffer, 8×10^−16 mol AP); 195 in assay [1] (pH 9.0, tris, 8×10^−16 mol AP). Besides, the “S/B (ratio of maximum light intensity to light intensity in the absence of enzyme)” value in assay [1] (pH 9.5, 221 buffer, 8×10^−16 mol AP) turned out to be 87; in assay [1] (pH 10.0, 221 buffer, 8×10^−16 mol AP) it was 13; in assay [1] (pH 10.5, 221 buffer, 8×10^−16 mol AP), 1.3. In addition, in assay [5], the “period over which detection could be performed” value is “over several hours”. The “time course of chemiluminescence with AcP” value in assay [6] was “reached maximum intensity nearly instantaneously and remained nearly constant for several minutes”. Besides, the “light intensity relative to reagent blank” value in assay [7] is listed as “three times the reagent blank”. In assay [3], the “S at 36 min (plateau intensity)” value is 2602.
